# Results taken from patent US20240398811A1, “PRC2 INHIBITORS FOR USE IN TREATING BLOOD DISORDERS” (ORIC Pharmaceuticals, Inc., priority 2021, published 2024).
# Biological target: purified human, His-tagged PRC2 complex (Homo sapiens (Human), UniProt O75530)
# Experiment: Hot Spot HMT assay, inhibition of PRC2 enzymatic activity
# Format: biochemical
# Conditions: 10 nM PRC2 complex, 1 μM 3H-SAM, core histone H3, 10-point dose-response
# How it was run: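 Methyl transfer from 1 μM tritiated SAM onto 0.05 mg/ml core histone H3, catalysed by 10 nM His/Flag-tagged human PRC2 holoenzyme, was run 1 hr at 30° C after a 20 min compound preincubation. Serial dilutions began at 1.0 μM; product captured on filters and counted.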
# Sequence of purified human, His-tagged PRC2 complex (O75530 whole entry): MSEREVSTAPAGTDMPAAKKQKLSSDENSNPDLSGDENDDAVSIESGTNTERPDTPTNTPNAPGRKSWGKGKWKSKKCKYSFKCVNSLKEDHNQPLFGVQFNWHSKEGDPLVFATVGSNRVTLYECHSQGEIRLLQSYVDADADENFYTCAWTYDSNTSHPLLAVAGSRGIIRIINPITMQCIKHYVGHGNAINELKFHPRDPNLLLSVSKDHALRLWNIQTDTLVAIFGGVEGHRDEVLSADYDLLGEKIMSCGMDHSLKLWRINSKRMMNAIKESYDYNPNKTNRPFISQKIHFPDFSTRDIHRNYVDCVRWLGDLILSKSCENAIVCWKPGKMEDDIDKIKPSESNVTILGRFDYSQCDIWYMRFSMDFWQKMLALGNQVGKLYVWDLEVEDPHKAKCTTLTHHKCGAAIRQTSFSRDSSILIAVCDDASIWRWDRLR
# Sequence of purified human, His-tagged PRC2 complex (Q15910 whole entry partner): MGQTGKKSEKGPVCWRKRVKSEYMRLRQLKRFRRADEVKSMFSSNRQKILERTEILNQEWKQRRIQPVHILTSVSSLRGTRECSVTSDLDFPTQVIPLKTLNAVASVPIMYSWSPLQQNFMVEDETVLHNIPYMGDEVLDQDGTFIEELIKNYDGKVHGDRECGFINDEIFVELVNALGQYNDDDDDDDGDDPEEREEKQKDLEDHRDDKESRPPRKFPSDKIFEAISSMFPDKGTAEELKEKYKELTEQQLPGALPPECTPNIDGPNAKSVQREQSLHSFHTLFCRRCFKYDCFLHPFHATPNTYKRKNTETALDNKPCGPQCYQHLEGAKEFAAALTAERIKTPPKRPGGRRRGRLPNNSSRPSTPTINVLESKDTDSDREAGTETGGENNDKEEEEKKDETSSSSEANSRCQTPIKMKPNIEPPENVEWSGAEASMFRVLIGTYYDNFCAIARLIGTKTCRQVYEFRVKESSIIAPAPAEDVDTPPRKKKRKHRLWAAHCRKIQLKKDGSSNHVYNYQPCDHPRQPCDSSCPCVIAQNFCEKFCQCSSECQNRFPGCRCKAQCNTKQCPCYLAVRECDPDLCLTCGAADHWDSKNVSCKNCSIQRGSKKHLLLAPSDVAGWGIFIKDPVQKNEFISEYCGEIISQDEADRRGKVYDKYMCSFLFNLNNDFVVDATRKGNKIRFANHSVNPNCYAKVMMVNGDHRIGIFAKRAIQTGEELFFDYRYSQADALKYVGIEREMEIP
# Sequence of purified human, His-tagged PRC2 complex (Q15022 whole entry partner): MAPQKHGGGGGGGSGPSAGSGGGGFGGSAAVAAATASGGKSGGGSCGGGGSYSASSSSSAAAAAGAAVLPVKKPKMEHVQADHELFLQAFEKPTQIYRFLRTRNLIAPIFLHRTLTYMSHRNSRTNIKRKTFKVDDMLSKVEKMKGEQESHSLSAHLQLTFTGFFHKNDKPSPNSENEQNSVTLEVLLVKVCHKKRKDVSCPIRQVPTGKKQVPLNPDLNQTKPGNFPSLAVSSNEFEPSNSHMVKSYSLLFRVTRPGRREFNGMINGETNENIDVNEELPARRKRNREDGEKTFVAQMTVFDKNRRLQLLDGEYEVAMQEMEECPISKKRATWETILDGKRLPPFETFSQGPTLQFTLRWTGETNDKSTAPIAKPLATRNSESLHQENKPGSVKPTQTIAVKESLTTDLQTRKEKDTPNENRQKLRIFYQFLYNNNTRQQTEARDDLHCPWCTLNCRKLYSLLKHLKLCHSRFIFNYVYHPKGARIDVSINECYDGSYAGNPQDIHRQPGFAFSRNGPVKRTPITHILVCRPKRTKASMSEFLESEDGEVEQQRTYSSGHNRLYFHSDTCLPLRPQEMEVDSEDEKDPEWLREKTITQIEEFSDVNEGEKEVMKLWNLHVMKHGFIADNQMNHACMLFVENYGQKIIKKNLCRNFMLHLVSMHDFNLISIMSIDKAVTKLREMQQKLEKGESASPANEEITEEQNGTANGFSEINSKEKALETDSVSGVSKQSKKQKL
# Sequence of purified human, His-tagged PRC2 complex (Q6ZN18 whole entry partner): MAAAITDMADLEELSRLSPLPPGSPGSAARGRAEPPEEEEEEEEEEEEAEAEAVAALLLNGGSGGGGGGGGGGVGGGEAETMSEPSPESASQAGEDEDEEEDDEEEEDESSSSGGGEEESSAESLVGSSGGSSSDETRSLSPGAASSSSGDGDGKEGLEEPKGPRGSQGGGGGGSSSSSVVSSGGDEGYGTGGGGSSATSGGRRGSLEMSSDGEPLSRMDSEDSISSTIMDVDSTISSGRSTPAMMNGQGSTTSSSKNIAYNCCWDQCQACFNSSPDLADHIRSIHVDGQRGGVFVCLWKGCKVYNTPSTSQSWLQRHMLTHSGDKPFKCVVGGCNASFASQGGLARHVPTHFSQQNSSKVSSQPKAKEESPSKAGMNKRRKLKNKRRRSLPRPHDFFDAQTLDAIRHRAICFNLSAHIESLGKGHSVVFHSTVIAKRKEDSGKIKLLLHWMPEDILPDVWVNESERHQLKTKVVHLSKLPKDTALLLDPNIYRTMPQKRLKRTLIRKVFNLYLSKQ
# Sequence of purified human, His-tagged PRC2 complex (Q09028 whole entry partner): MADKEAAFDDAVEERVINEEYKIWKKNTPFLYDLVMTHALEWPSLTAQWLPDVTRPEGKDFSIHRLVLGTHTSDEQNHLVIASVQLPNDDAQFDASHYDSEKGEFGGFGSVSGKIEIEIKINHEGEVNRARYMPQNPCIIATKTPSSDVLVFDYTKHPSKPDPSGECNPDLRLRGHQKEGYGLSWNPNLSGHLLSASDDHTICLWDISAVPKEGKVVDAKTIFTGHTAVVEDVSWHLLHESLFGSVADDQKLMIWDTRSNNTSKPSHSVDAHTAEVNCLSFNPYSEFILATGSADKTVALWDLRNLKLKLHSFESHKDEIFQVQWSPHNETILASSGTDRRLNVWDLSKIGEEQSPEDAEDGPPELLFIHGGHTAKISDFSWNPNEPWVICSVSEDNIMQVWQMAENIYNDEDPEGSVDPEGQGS
row,IC50,SMILES
1,100 to 500 nM,"Cc1cc(CN(C)C)c(F)cc1-c1cnc(NCc2c(F)ccc3c2CCO3)n2cc(C#N)nc12 [Example 84, 8-(4-((dimethylamino)methyl)-5-fluoro-2-methylphenyl)-5-(((5-fluoro-2,3-dihydrobenzofuran-4-yl)methyl)amino)imidazo[1,2-c]pyrimidine-2-carbonitrile]"
2,< 100 nM,"Cc1c(-c2cnc(NCc3c(F)ccc4c3CCO4)n3cc(C#N)nc23)ccc(CN(C)C)c1F [Example 85, 8-(4-((dimethylamino)methyl)-3-fluoro-2-methylphenyl)-5-(((5-fluoro-2,3-dihydrobenzofuran-4-yl)methyl)amino)imidazo[1,2-c]pyrimidine-2-carbonitrile]"
3,< 100 nM,"Cc1cc(-c2cnc(NCc3c(F)ccc4c3CCO4)n3cc(C#N)nc23)n(C)n1 [Example 86, 8-(1,3-dimethyl-1H-pyrazol-5-yl)-5-(((5-fluoro-2,3-dihydrobenzofuran-4-yl)methyl)amino)imidazo[1,2-c]pyrimidine-2-carbonitrile]"
4,< 100 nM,"Cc1cc(S(C)(=O)=O)ccc1-c1cnc(NCc2c(F)ccc3c2CCO3)n2cc(C#N)nc12 [Example 87, 5-(((5-fluoro-2,3-dihydrobenzofuran-4-yl)methyl)amino)-8-(2-methyl-4-(methylsulfonyl)phenyl)imidazo[1,2-c]pyrimidine-2-carbonitrile]"
5,< 100 nM,"COc1ncc(-c2cnc(NCc3c(F)ccc4c3CCO4)n3cc(C#N)nc23)c(C)n1 [Example 88, 5-(((5-fluoro-2,3-dihydrobenzofuran-4-yl)methyl)amino)-8-(2-methoxy-4-methylpyrimidin-5-yl)imidazo[1,2-c]pyrimidine-2-carbonitrile]"
6,< 100 nM,"Cc1nc(OC(C)C)ncc1-c1cnc(NCc2c(F)ccc3c2CCO3)n2cc(C#N)nc12 [Example 89, 5-(((5-fluoro-2,3-dihydrobenzofuran-4-yl)methyl)amino)-8-(2-isopropoxy-4-methylpyrimidin-5-yl)imidazo[1,2-c]pyrimidine-2-carbonitrile]"
7,< 100 nM,"CC(c1ccc(-c2cnc(NCc3c(F)ccc4c3CCO4)n3cc(C#N)nc23)cc1)N1CCCC1 (stereo not drawn) [Example 90, 5-(((5-fluoro-2,3-dihydrobenzofuran-4-yl)methyl)amino)-8-(4-(1-(pyrrolidin-1-yl)ethyl)phenyl)imidazo[1,2-c]pyrimidine-2-carbonitrile]"
8,100 to 500 nM,"COc1cc(Cl)c(-c2cnc(NCc3c(F)ccc4c3CCO4)n3cc(C#N)nc23)cn1 [Example 91, 8-(4-chloro-6-methoxypyridin-3-yl)-5-(((5-fluoro-2,3-dihydrobenzofuran-4-yl)methyl)amino)imidazo[1,2-c]pyrimidine-2-carbonitrile]"
9,100 to 500 nM,"Cc1nn(C(C)C)c(C)c1-c1cnc(NCc2c(F)ccc3c2CCO3)n2cc(C#N)nc12 [Example 92, 5-(((5-fluoro-2,3-dihydrobenzofuran-4-yl)methyl)amino)-8-(1-isopropyl-3,5-dimethyl-1H-pyrazol-4-yl)imidazo[1,2-c]pyrimidine-2-carbonitrile]"
10,100 to 500 nM,"COc1cncc(-c2cnc(NCc3c(F)ccc4c3CCO4)n3cc(C#N)nc23)c1 [Example 93, 5-(((5-fluoro-2,3-dihydrobenzofuran-4-yl)methyl)amino)-8-(5-methoxypyridin-3-yl)imidazo[1,2-c]pyrimidine-2-carbonitrile]"
11,< 100 nM,"COc1ccc(-c2cnc(NCc3c(F)ccc4c3CCO4)n3cc(C#N)nc23)cn1 [Example 94, 5-(((5-fluoro-2,3-dihydrobenzofuran-4-yl)methyl)amino)-8-(6-methoxypyridin-3-yl)imidazo[1,2-c]pyrimidine-2-carbonitrile]"
12,< 100 nM,"N#Cc1cncc(-c2cnc(NCc3c(F)ccc4c3CCO4)n3cc(C#N)nc23)c1 [Example 95, 8-(5-cyanopyridin-3-yl)-5-(((5-fluoro-2,3-dihydrobenzofuran-4-yl)methyl)amino)imidazo[1,2-c]pyrimidine-2-carbonitrile]"
